Assay results published in patent US6399642B2, “Benzimidazole topoisomerase poisons” (Rutgers, The State University of New Jersey, priority 1998, dated 2002).

Molecular target: T1, human topoisomerase I (Homo sapiens, UniProt P11387)
T1 construct: unnamed fusion partner (recombinant fusion protein); made in house
T1 sequence (P11387 1-765): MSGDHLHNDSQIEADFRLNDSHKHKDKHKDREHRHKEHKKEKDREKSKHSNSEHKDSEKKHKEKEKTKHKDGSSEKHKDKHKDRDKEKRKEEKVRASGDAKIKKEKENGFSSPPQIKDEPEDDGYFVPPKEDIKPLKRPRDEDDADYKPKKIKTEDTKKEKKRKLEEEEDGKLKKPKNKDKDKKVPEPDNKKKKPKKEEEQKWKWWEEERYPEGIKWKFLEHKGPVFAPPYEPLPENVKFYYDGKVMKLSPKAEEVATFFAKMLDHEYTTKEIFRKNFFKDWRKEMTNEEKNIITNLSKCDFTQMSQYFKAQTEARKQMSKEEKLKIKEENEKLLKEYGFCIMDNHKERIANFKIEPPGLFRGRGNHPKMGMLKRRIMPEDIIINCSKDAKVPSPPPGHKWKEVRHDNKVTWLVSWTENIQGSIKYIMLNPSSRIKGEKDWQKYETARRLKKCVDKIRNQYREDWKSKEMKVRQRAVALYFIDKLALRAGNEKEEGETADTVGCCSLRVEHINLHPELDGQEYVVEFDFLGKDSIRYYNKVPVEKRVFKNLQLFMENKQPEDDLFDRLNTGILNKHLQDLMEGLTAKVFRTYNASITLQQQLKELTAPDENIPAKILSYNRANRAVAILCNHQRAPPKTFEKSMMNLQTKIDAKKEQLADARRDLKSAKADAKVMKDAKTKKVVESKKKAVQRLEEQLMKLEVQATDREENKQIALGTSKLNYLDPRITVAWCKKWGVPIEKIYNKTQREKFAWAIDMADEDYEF
Experiment: Test A. Topoisomerase I Cleavage Assay
Format: biochemical
Settings: concentration relative to compound 5 producing the same cleavage on plasmid DNA in the presence of human topoisomerase I
Description: Test A. Topoisomerase I Cleavage Assay.
Representative compounds of the invention were evaluated in a cleavage assay using recombinant topoisomerases I. This assay was preformed as described by B. Gatto et al. Cancer Res., 1996, 56, 2795-2800. Human topoisomerase I was isolated as a recombinant fusion protein using a T7 expression system. Plasmid YEpG was purified by the alkali lysis method followed by phenol deproteination and CsCl/ethidium isopycnic centrifiigation as described by Maniatis, T.; Fritsch, E. F.; Sambrook, J. Molecular Cloning, a Laboratory Manual; Cold Spring Harbor Laboratory: Cold Spring Harbor, N.Y. 1982; pp 149-185. The end-labeling of the plasmid was accomplished by digestion with a restriction enzyme followed by end-filling with Klenow polymerase as previously described by Liu, L. F.; Rowe, T. C.; Yang, L.; Tewey, K. M.; Chen, G. L. “Cleavage of DNA by mammalian topoisomerase II,” J. Biol. Chem. 1983, 258, 15365. […] Topoisomerase I cleavage values are reported as REC, Relative Effective Concentration (i.e., concentrations relative to compound 5, whose value is arbitrarily assumed as 1) that is able to produce the same cleavage on the plasmid DNA in the presence of human topoisomerase I.

FC(F)(F)c1nc2cc(-c3nc4cc(-c5nc6cc(-c7ccccc7)ccc6[nH]5)ccc4[nH]3)ccc2[nH]1 [Compound 5, 5-Phenyl-2-[2′(2″-trifluoromethylbenzimidazol-5″yl)benzimidazol-5′-yl]benzimidazole]
Topoisomerase I cleavage, REC (Relative Effective Concentration): 1
